Test system: healthy subjects
Assay: Safety and tolerability
Assay type: in vivo, human
[1] = MAD 100 mg tablet b.i.d. 14 days
[2] = MAD 200 mg tablet b.i.d. 14 days

Structure (SMILES): O[C@H]1CCCN[C@@H]1CCCn1cnc2c(Cl)c(Cl)ccc21 [Bersiporocin]
- ADRs, number of events [1]: 32
- Abdominal discomfort (ADR), subjects n (%) [1]: 0
- Abdominal distension (ADR), number of events [1]: 3
- Abdominal distension (ADR), subjects n (%) [1]: 2 (33.3)
- Abdominal pain (ADR), number of events [1]: 8
- Abdominal pain (ADR), subjects n (%) [1]: 3 (50.0)
- Abdominal pain upper (ADR), number of events [1]: 2
- Abdominal pain upper (ADR), subjects n (%) [1]: 2 (33.3)
- Acne (ADR), subjects n (%) [1]: 0
- Alanine aminotransferase increased (ADR), subjects n (%) [1]: 0
- Altered visual depth perception (ADR), subjects n (%) [1]: 0
- Balance disorder (ADR), subjects n (%) [1]: 0
- Bowel movement irregularity (ADR), subjects n (%) [1]: 0
- Cold sweat (ADR), subjects n (%) [1]: 0
- Constipation (ADR), number of events [1]: 2
- Constipation (ADR), subjects n (%) [1]: 2 (33.3)
- Decreased appetite (ADR), subjects n (%) [1]: 0
- Diarrhea (ADR), number of events [1]: 4
- Diarrhea (ADR), subjects n (%) [1]: 3 (50.0)
- Dizziness (ADR), subjects n (%) [1]: 0
- Dry mouth (ADR), subjects n (%) [1]: 0
- Dysgeusia (ADR), subjects n (%) [1]: 0
- Eructation (ADR), subjects n (%) [1]: 0
- Esophageal pain (ADR), number of events [1]: 1
- Esophageal pain (ADR), subjects n (%) [1]: 1 (16.7)
- Euphoric mood (ADR), subjects n (%) [1]: 0
- Feces discolored (ADR), subjects n (%) [1]: 0
- Feces soft (ADR), number of events [1]: 2
- Feces soft (ADR), subjects n (%) [1]: 2 (33.3)
- Feeling hot (ADR), subjects n (%) [1]: 0
- Flatulence (ADR), subjects n (%) [1]: 0
- Gastroesophageal reflux disease (ADR), subjects n (%) [1]: 0
- Headache (ADR), subjects n (%) [1]: 0
- Hypoesthesia (ADR), subjects n (%) [1]: 0
- Impaired healing (ADR), number of events [1]: 1
- Impaired healing (ADR), subjects n (%) [1]: 1 (16.7)
- Malaise (ADR), subjects n (%) [1]: 0
- Myalgia (ADR), subjects n (%) [1]: 0
- Nausea (ADR), number of events [1]: 4
- Nausea (ADR), subjects n (%) [1]: 3 (50.0)
- Neutropenia (ADR), subjects n (%) [1]: 0
- Oropharyngeal pain (ADR), subjects n (%) [1]: 0
- Papule (ADR), number of events [1]: 1
- Papule (ADR), subjects n (%) [1]: 1 (16.7)
- Pollakiuria (ADR), subjects n (%) [1]: 0
- Presyncope (ADR), number of events [1]: 1
- Presyncope (ADR), subjects n (%) [1]: 1 (16.7)
- Proctalgia (ADR), subjects n (%) [1]: 0
- Salivary hypersecretion (ADR), subjects n (%) [1]: 0
- Skin irritation (ADR), number of events [1]: 1
- Skin irritation (ADR), subjects n (%) [1]: 1 (16.7)
- Somnolence (ADR), subjects n (%) [1]: 0
- Subjects with ADRs, n (%) [1]: 6 (100)
- Transaminases increased (ADR), subjects n (%) [1]: 0
- Tremor (ADR), subjects n (%) [1]: 0
- Vomiting (ADR), number of events [1]: 2
- Vomiting (ADR), subjects n (%) [1]: 1 (16.7)
- ADRs, number of events [2]: 58
- Abdominal discomfort (ADR), subjects n (%) [2]: 0
- Abdominal distension (ADR), number of events [2]: 5
- Abdominal distension (ADR), subjects n (%) [2]: 3 (50.0)
- Abdominal pain (ADR), number of events [2]: 14
- Abdominal pain (ADR), subjects n (%) [2]: 3 (50.0)
- Abdominal pain upper (ADR), subjects n (%) [2]: 0
- Acne (ADR), number of events [2]: 1
- Acne (ADR), subjects n (%) [2]: 1 (16.7)
- Alanine aminotransferase increased (ADR), subjects n (%) [2]: 0
- Altered visual depth perception (ADR), subjects n (%) [2]: 0
- Balance disorder (ADR), number of events [2]: 1
- Balance disorder (ADR), subjects n (%) [2]: 1 (16.7)
- Bowel movement irregularity (ADR), subjects n (%) [2]: 0
- Cold sweat (ADR), subjects n (%) [2]: 0
- Constipation (ADR), subjects n (%) [2]: 0
- Decreased appetite (ADR), subjects n (%) [2]: 0
- Diarrhea (ADR), number of events [2]: 7
- Diarrhea (ADR), subjects n (%) [2]: 4 (66.7)
- Dizziness (ADR), number of events [2]: 2
- Dizziness (ADR), subjects n (%) [2]: 2 (33.3)
- Dry mouth (ADR), subjects n (%) [2]: 0
- Dysgeusia (ADR), subjects n (%) [2]: 0
- Eructation (ADR), number of events [2]: 1
- Eructation (ADR), subjects n (%) [2]: 1 (16.7)
- Esophageal pain (ADR), subjects n (%) [2]: 0
- Euphoric mood (ADR), subjects n (%) [2]: 0
- Feces discolored (ADR), subjects n (%) [2]: 0
- Feces soft (ADR), subjects n (%) [2]: 0
- Feeling hot (ADR), subjects n (%) [2]: 0
- Flatulence (ADR), number of events [2]: 1
- Flatulence (ADR), subjects n (%) [2]: 1 (16.7)
- Gastroesophageal reflux disease (ADR), subjects n (%) [2]: 0
- Headache (ADR), number of events [2]: 7
- Headache (ADR), subjects n (%) [2]: 3 (50.0)
- Hypoesthesia (ADR), subjects n (%) [2]: 0
- Impaired healing (ADR), subjects n (%) [2]: 0
- Malaise (ADR), subjects n (%) [2]: 0
- Myalgia (ADR), subjects n (%) [2]: 0
- Nausea (ADR), number of events [2]: 12
- Nausea (ADR), subjects n (%) [2]: 5 (83.3)
- Neutropenia (ADR), subjects n (%) [2]: 0
- Oropharyngeal pain (ADR), subjects n (%) [2]: 0
- Papule (ADR), subjects n (%) [2]: 0
- Pollakiuria (ADR), subjects n (%) [2]: 0
- Presyncope (ADR), subjects n (%) [2]: 0
- Proctalgia (ADR), number of events [2]: 2
- Proctalgia (ADR), subjects n (%) [2]: 1 (16.7)
- Salivary hypersecretion (ADR), subjects n (%) [2]: 0
- Skin irritation (ADR), subjects n (%) [2]: 0
- Somnolence (ADR), number of events [2]: 2
- Somnolence (ADR), subjects n (%) [2]: 1 (16.7)
- Subjects with ADRs, n (%) [2]: 5 (83.3)
- Transaminases increased (ADR), subjects n (%) [2]: 0
- Tremor (ADR), number of events [2]: 1
- Tremor (ADR), subjects n (%) [2]: 1 (16.7)
- Vomiting (ADR), number of events [2]: 2
- Vomiting (ADR), subjects n (%) [2]: 2 (33.3)
- ADRs, number of events (MAD study, bersiporocin group): 150
- subjects with ADRs, number (MAD study, bersiporocin group): 21
- subjects with ADRs, percentage (MAD study, bersiporocin group): 88%

Reference: publication PMC10339703 (Clinical and Translational Science, 2023)
